# Laboratory results published in patent publication US8853188B2, “Compositions and methods for cancer treatment” (Women and Infants Hospital of RI, Inc., priority 2005, dated 2014).
# The star is where a group is joined. Cbz = O=C(OCc1ccccc1)*; CH2F = FC*
# Experiments:
# [1] = mouse, in vivo
# Method: FIG. 6A. In vivo studies to determine apparent systemic toxicity of B3CD. Mice were injected with the specified amounts of B3CD (i.p.) once in 48 hr for 28 days. The animals were weighed to assess the effect of B3CD on change in body weight.
# FIG. 6B. At the end of the experiment (6A) mice were sacrificed and blood collected to estimate serum calcium as a measure of hypercalcemia.
# A major concern was the potential systemic toxicity of B3CD due to hypercalcemia since B3CD (FIG. 1) is a derivative of calcidiol, which is a family member of calcitriol (Schmidt-Gayk H, Bouillon R, Roth H J. Measurement of vitamin D and its metabolites (calcidiol and calcitriol) and their clinical significance. Scand J Clin Lab Invest Suppl. 1997; 227:35-45). Therapeutic doses of calcitriol lead to increased serum calcium and consequently death; therefore, hypercalcemia is a hallmark of lethality of pharmacologic doses of calcitriol. In the event that further testing in vivo might show lethal calcemic side effects, preliminary studies were carried out to determine any overt toxic effects in a murine model.
# The effect of B3CD on serum calcium levels in SCID mice was tested. These studies were carried out in Boston University School of Medicine, Boston, Mass., in accordance with institutional guidelines. B3CD, calcidiol and calcitriol were formulated in 80% polyethylene glycol in PBS and were administered as i.p. injections once in 48 hours for 28 days. Animals were euthanized, sera collected and analyzed immediately for serum calcium in the hospital core facility. The animals were divided into 4 groups of 5 animals each.
# panel of cancer cells = test: Antiproliferative and cytotoxic activity on a panel of cancer cells (MTS, 96 well plates); assay type: cell-based; details: parent compound used as control; data not shown
# Excerpt: A panel of cancer cells is used to evaluate the antiproliferative and cytotoxic activities of B3CD and related analogs. The cells include colon (Colo), breast (MCF-7 and MDA-MB-231), lung (A549), prostate PC3 and LNCaP), melanoma (SK-MEL-31), renal (Caki-1), ovarian (OVCAR-3), bladder (T24), pancreatic (BxPC-3), hepatocarcinoma (Hep3B), neuroblastoma (SH-SY5Y), glioblastoma (SNB-19), medulloblastoma (D283 Med), skin (LS123), squamous cell carcinoma (Scc-15), acute promyelocytic leukemia (APL), myeloblastic (HL-60) and myelomonocytic (U937).
# The anticancer activity testing will be carried out by high throughput screening. The cancer cells will be cultured in 96 well plates and treated with the library. B3CD has been tested in this system and was effective at a 200 nM dose. For general screening, 2-200 nM doses will be used. Cells will be treated with the compounds for 12, 24, 48 and 72 hours. A 96 well plate format allows testing a large number of compounds simultaneously. An MTS based colorimetric method of evaluation of proliferation will be utilized, which is widely used in cancer drug discovery. The fingerprint of profiled drugs using 60 cell-line screening program by NCl using COMPARE algorithm (Paull K D, Shoemaker R H, Hodes L, Monks A, Scudiero D A, Rubinstein L, Plowman J, Boyd M R. Display and analysis of patterns of differential activity of drugs against human tumor cell lines: development of mean graph and COMPARE algorithm. J Natl Cancer Inst 1989; 81:1088).
# (§1) Materials and methods. Proliferation was measured by MTS and BrdU incorporation assays. Apoptosis was assessed by DNA fragmentation, Cell Death Detection ELISA and caspase-3-assays. Effect of B3CD on TrkB signaling by BDNF was assessed by Western Blot analysis of AKT and ERK phosphorylation. The effect on angiogenesis was determined by chick chorioallantoic membrane (CAM) assay and aortic ring assay.
# [2] = system: VEGF induced angiogenesis; test: Chick chorioallantoic membrane (CAM) assay; assay type: in vivo; details: VEGF present
# Method: as §1
# The antiproliferative effect of B3CD on endothelial cells was further investigated.
# The ability of B3CD to inhibit angiogenesis/neovascularization was tested. Preliminary studies were carried out using chick chorioallantoic membrane (CAM) assay. Calcidiol or B3CD were deposited in the presence of growth factor (VEGF) and deposited on the CAM and eggs were incubated for 3 days at 37° C. (3% CO2). The control carried the growth factor alone. VEGF induces angiogenesis which results in sprouting of capillaries from the large vessels. The compounds diffuse out and any inhibitory molecule would reduce the growth of blood vessel network.
# SK-N-SH cells [3] = test: Cell viability by MTS assay; assay type: cell-based; details: 0-800 nM, 48 hours
# Method: (§2) SK-N-SH and SH-SY5Y neuroblastic cells were treated with increasing doses of calcidiol or B3CD (0, 25, 50, 100, 200, 400 and 800 nM) for 48 hours. Cell viability was assessed by MTS assay and proliferation was determined by BrdU incorporation assay.
# SK-N-SH cells [4] = test: Proliferation by BrdU incorporation assay; assay type: cell-based; details: 0-800 nM, 48 hours
# Method: as §2
# caspase-3 = test: Caspase-3 activation with specific substrate in SK-N-SH cells; assay type: cell-based
# Method: Caspases are integral to apoptosis in cells. Following the treatment of SK-N-SH cells with 250 nM B3CD, activation of caspase-3 was measured by using specific substrate.
# IMR-32 cells = test: Apoptosis in apoptosis-resistant NB cells; assay type: cell-based; details: IMR-32, pretreatment before B3CD
# Method: (§3) NB is characterized with defective apoptotic pathways. […] Neuronal (N-) type SH-SY5Y and IMR-32 cells, and stromal (S-) type SMS-KCNR cells which are resistant to apoptosis were used. […] A defect in caspase-8 or its activation causes resistance to apoptosis and in turn to chemotherapy in all these cells. On the other hand, these cells carry intact intrinsic apoptotic pathway, and executioner caspase-3 is activated by caspase-9 route.
# (§4) In depth studies were carried out to assess the activation of intrinsic and extrinsic apoptotic pathways. […] Caspase-9 was activated by B3CD in these cells (FIG. 10B), indicating an active role of intrinsic pathway of apoptosis. […] However, caspase-8 was undetectable in IMR-32 and SH-SY5Y cells.
# (§5) Although caspase-8 was detected in SMS-KCNR cells, it was not activated by B3CD (FIG. 10D). Actin immunoblotting was used as loading control in the above studies (data not shown).
# SMS-KCNR cells = test: Apoptosis in apoptosis-resistant NB cells; assay type: cell-based; details: pretreatment before B3CD
# Method: as §3, §4, §5
# [5] = system: SH-SY5Y, IMR-32 and SMS-KCNR cells; details: cells with defects in caspase-8 activation; cited from earlier work
compound,measurement,setting,value
"C=C1/C(=C\C=C2/CCC[C@]3(C)[C@@H]([C@H](C)CCCC(C)(C)O)CC[C@@H]23)C[C@@H](O)C[C@@H]1O [calcitriol, 1,25-dihydroxy-vitamin D3, reference compound]","clinical signs (lethargy, tolerance to handling, mobility)",[1],appeared lethargic and exhibited a decreased tolerance to handling with reduced mobility
"C=C1CC[C@H](O)C/C1=C/C=C1\CCC[C@@]2(C)C1CC[C@@H]2[C@H](C)CCCC(C)(C)O (stereo partly drawn) [calcidiol, (1 S,Z)-3-(2-((1R,7aR,E)-1-((R)-6-hydroxy-6-methylheptan-2-yl)-7a-methyloctahydro-4H-inden-4-ylidene)ethylidene)-4-methylenecyclohexan-1-ol, reference compound]","antiproliferative, cytotoxic, apoptotic activities",panel of cancer cells,"did not exhibit any antiproliferative, cytotoxic, apoptotic activities"
same,inhibition of angiogenesis / neovascularization (in words),[2],no inhibition of neovascularization
same,viability of SK-N-SH cells (in words),SK-N-SH cells [3],did not show any similar effects
same,"proliferation, BrdU incorporation",SK-N-SH cells [4],did not show inhibitory activity
same,caspase-3 activation (in words),caspase-3,did not show any significant change
Cbz-LEHD-CH2F [reference compound],effect of pretreatment on B3CD induced apoptosis,IMR-32 cells,effectively inhibited apoptosis
same,effect of pretreatment on B3CD induced apoptosis,SMS-KCNR cells,effectively inhibited apoptosis
COc1cccc2c1C(=O)c1c(O)c3c(c(O)c1C2=O)C[C@@](O)(C(=O)CO)C[C@@H]3O[C@H]1C[C@H](N)[C@H](O)[C@H](C)O1 [doxorubicin],apoptosis and activation of caspase-9 and -3,[5],undergo apoptosis and activation of caspase-9 and -3
